Assay [1] concerns the target T1, human mGlu5a receptor (Homo sapiens, UniProt P41594). Nature of the assay: Intracellular Ca2+ mobilization assay (mGlu5 PAM). Format: cell-based. Details: expressed in transfected cells. The conditions noted are these: for Emax: HEK293, maximal response in % of maximal stimulatory effect of saturating L-glutamate, HEK-293 human mGlu5a, read-out: Eff. (%); for EC50: HEK-293 cells stably expressing human mGlu5a, L-glutamate added at EC20, read-out: EC50 (nM) mGlu5PAM. On the procedure:
A monoclonal HEK-293 cell line stably transfected with a cDNA encoding for the human mGlu5a receptor was generated; for the work with mGlu5 Positive Allosteric Modulators (PAMs), a cell line with low receptor expression levels and low constitutive receptor activity was selected to allow the differentiation of agonistic versus PAM activity. Cells were cultured according to standard protocols (Freshney, 2000) in Dulbecco's Modified Eagle Medium with high glucose supplemented with 1 mM glutamine, 10% (vol/vol) heat-inactivated bovine calf serum, Penicillin/Streptomycin, 50 μg/ml hygromycin and 15 μg/ml blasticidin (all cell culture reagents and antibiotics from Invitrogen, Basel, Switzerland).
About 24 hrs before an experiment, 5×10^4 cells/well were seeded in poly-D-lysine coated, black/clear-bottomed 96-well plates. The cells were loaded with 2.5 μM Fluo-4AM in loading buffer (1×HBSS, 20 mM HEPES) for 1 hr at 37° C. and washed five times with loading buffer. The cells were transferred into a Functional Drug Screening System 7000 (Hamamatsu, Paris, France), and 11 half logarithmic serial dilutions of test compound at 37° C. were added and the cells were incubated for 10-30 min with on-line recording of fluorescence. Following this pre-incubation step, the agonist L-glutamate was added to the cells at a concentration corresponding to EC20 (typically around 80 μM) with on-line recording of fluorescence; in order to account for day-to-day variations in the responsiveness of cells, the EC20 of glutamate was determined immediately ahead of each experiment by recording of a full dose-response curve of glutamate.
Responses were measured as peak increase in fluorescence minus basal (i.e. fluorescence without addition of L-glutamate), normalized to the maximal stimulatory effect obtained with saturating concentrations of L-glutamate. Graphs were plotted with the % maximal stimulatory using XLfit, a curve fitting program that iteratively plots the data using Levenburg Marquardt algorithm. The single site competition analysis equation used was y=A+((B−A)/(1+((x/C)D))), where y is the % maximal stimulatory effect, A is the minimum y, B is the maximum y, C is the EC50, x is the log 10 of the concentration of the competing compound and D is the slope of the curve (the Hill Coefficient). From these curves the EC50 (concentration at which half maximal stimulation was achieved), the Hill coefficient as well as the maximal response in % of the maximal stimulatory effect obtained with saturating concentrations of L-glutamate were calculated.
A depression of the signal observed after addition of the EC20 concentration of L-glutamate was indicative of an inhibitory activity of the test compound.
In the table below are shown the prepared compounds 1-24 with corresponding results (EC50 in nM).
A general note: Calcium flux is commonly read through the fluorescence of an indicator in the cells.

Assay [2] has as its target T1, human mGlu5a receptor. Nature of the assay: [3H]MPEP binding competition on human mGlu5a receptor membranes. Details: expressed in transfected cells; host or cells: EBNA cells (transient), membrane homogenates. As to conditions: [3H]MPEP (2 nM) competition, EBNA cell membranes, 1 h at 4° C.; read-out: Human mGluR5 Ki. On the procedure: Examples 18, 20-22 have been tested on human mGluR5 receptor using the following method:
For binding experiments, cDNA encoding human mGlu 5a receptor was transiently transfected into EBNA cells using a procedure described by Schlaeger and Christensen [Cytotechnology 15:1-13 (1998)]. Cell membrane homogenates were stored at −80° C. until the day of assay where upon they were thawed and resuspended and polytronized in 15 mM Tris-HCl, 120 mM NaCl, 100 mM KCl, 25 mM CaCl2, 25 mM MgCl2 binding buffer at pH 7.4 to a final assay concentration of 20 μg protein/well.
Saturation isotherms were determined by addition of twelve [^3H]MPEP concentrations (0.04-100 nM) to these membranes (in a total volume of 200 μl) for 1 h at 4° C. Competition experiments were performed with a fixed concentration of [^3H]MPEP (2 nM) and IC50 values of test compounds evaluated using 11 concentrations (0.3-10,000 nM). Incubations were performed for 1 h at 4° C.
At the end of the incubation, membranes were filtered onto unifilter (96-well white microplate with bonded GF/C filter preincubated 1 h in 0.1% PEI in wash buffer, Packard BioScience, Meriden, Conn.) with a Filtermate 96 harvester (Packard BioScience) and washed 3 times with cold 50 mM Tris-HCl, pH 7.4 buffer. Nonspecific binding was measured in the presence of 10 μM MPEP. The radioactivity on the filter was counted (3 min) on a Packard Top-count microplate scintillation counter with quenching correction after addition of 45 μl of microscint 40 (Canberra Packard S.A., Zürich, Switzerland) and shaking for 20 min.
For binding experiments the Ki values of the compounds tested are given. The Ki value is defined by the following formula: Ki=IC50/[1+L/Kd] in which the IC50 values are those concentrations of the compounds tested which cause 50% inhibition of the competing radioligand ([^3H]MPEP). L is the concentration of radioligand used in the binding experiment and the Kd value of the radioligand is empirically determined for each batch of membranes prepared.

This is an account of results in US8648088B2, “Ethynyl nitrogen containing heteroaryl pyrazolidin-3-one derivatives” (Hoffmann-La Roche Inc., priority 2011, dated 2014).

T1 sequence (P41594 21-1180 isoform P41594-2 limits assumed): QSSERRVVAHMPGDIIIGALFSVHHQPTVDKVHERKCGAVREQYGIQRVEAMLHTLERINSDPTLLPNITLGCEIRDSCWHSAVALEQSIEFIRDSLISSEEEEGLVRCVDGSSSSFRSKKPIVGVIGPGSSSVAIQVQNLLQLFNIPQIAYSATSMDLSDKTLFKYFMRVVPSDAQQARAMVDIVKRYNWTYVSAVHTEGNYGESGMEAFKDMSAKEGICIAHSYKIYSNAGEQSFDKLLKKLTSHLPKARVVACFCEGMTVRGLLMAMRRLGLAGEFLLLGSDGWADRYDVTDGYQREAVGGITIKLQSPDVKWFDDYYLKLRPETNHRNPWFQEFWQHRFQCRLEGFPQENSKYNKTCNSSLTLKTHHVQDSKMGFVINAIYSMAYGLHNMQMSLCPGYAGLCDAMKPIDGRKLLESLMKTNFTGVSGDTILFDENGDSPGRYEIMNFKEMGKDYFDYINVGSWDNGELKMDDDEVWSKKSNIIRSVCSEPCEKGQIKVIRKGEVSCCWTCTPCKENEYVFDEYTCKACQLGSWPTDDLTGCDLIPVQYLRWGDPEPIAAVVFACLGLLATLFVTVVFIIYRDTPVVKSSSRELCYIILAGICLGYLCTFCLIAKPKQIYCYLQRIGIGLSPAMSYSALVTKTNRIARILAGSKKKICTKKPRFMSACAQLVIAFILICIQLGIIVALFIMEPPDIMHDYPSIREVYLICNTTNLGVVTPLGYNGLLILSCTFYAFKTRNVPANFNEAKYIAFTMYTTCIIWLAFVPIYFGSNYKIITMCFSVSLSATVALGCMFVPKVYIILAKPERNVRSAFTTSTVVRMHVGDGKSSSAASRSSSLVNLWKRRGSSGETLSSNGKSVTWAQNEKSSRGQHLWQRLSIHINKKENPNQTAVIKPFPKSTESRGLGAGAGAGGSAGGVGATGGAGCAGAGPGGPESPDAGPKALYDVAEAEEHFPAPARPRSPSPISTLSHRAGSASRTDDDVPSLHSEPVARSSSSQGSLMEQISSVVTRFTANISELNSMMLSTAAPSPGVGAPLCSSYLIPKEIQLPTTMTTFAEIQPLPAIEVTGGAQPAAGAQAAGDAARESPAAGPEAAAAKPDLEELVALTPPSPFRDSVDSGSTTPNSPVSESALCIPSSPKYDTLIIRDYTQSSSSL

A word on the EC50: it is the concentration needed to bring the measured effect to its halfway point. As for `CN1N(c2ncc(C#Cc3ccc(F)cc3)cn2)C(=O)CC1(C)C` [Example 16, 2-[5-(4-Fluoro-phenylethynyl)-pyrimidin-2-yl]-1,5,5-trimethyl-pyrazolidin-3-one], at human mGlu5a receptor [1], the Emax was found to be 69% and the EC50 was 56 nM. The matching figures for `CC1(C)CC(=O)N(c2ncc(C#Cc3ccccc3)cn2)N1` [Example 9, 5,5-Dimethyl-2-(5-phenylethynyl-pyrimidin-2-yl)-pyrazolidin-3-one]: 39% and 46 nM. Regarding `O=C1CC2CCCN2N1c1ncc(C#Cc2ccc(F)cc2)cn1` (racemic) [Example 13, (RS)-1-[5-(4-Fluoro-phenylethynyl)-pyrimidin-2-yl]-tetrahydro-pyrrolo[1,2-b]pyrazol-2-one], at human mGlu5a receptor [1], the Emax worked out at 58% and the EC50 was 41 nM. In the case of `O=C1CC2CCCN2N1c1ncc(C#Cc2cccc(F)c2)cn1` (racemic) [Example 12, (RS)-1-[5-(3-Fluoro-phenylethynyl)-pyrimidin-2-yl]-tetrahydro-pyrrolo[1,2-b]pyrazol-2-one], at human mGlu5a receptor [1], the Emax worked out at 59% and the EC50 was found to be 22 nM. The matching figures for `CCN1C(C(C)C)CC(=O)N1c1ccc(C#Cc2ccccc2)cn1` (racemic) [Example 23, (RS)-1-Ethyl-5-isopropyl-2-(5-phenylethynyl-pyridin-2-yl)-pyrazolidin-3-one]: 46% and 106 nM. The matching figures for `O=C1CC2CCCN2N1c1ccc(C#Cc2ccccc2)cn1` (racemic) [Example 10, (RS)-1-(5-Phenylethynyl-pyridin-2-yl)-tetrahydro-pyrrolo[1,2-b]pyrazol-2-one]: 73% and 35 nM. The matching figures for `CC1(C)CC(=O)N(c2ccc(C#Cc3ccccc3)cn2)N1` [Example 1, 5,5-Dimethyl-2-(5-phenylethynyl-pyridin-2-yl)-pyrazolidin-3-one]: 60% and 7 nM.

A word on the Ki: it is a dissociation constant, usually derived from enzyme kinetics or from competition with a known ligand. On to `CC1(C)CC(=O)N(c2ccc(C#Cc3cc(F)ccc3F)cn2)N1` [Example 20, 2-[5-(2,5-Difluoro-phenylethynyl)-pyridin-2-yl]-5,5-dimethyl-pyrazolidin-3-one], for which the Ki at human mGlu5a receptor [2] was 69.7 nM. For the compound `CN1N(c2ccc(C#Cc3cccc(F)c3)cn2)C(=O)CC1(C)C` [Example 6, 2-[5-(3-Fluoro-phenylethynyl)-pyridin-2-yl]-1,5,5-trimethyl-pyrazolidin-3-one], on human mGlu5a receptor [1], the Emax is 109% and the EC50 worked out at 36 nM. The matching figures for `CN1N(c2ncc(C#Cc3cc(F)ccc3F)cn2)C(=O)CC1(C)C` [Example 17, 2-[5-(2,5-Difluoro-phenylethynyl)-pyrimidin-2-yl]-1,5,5-trimethyl-pyrazolidin-3-one]: 47% and 35 nM.

For the compound `CC1(C)CC(=O)N(c2ccc(C#Cc3cc(F)ccc3F)nn2)N1` [Example 19, 2-[6-(2,5-Difluoro-phenylethynyl)-pyridazin-3-yl]-5,5-dimethyl-pyrazolidin-3-one], on human mGlu5a receptor [1], the Emax turned out to be 86% and the EC50 was found to be 86 nM. Consider `CN1N(c2ccc(C#Cc3cccc(Cl)c3)cn2)C(=O)CC1(C)C` [Example 7, 2-[5-(3-Chloro-phenylethynyl)-pyridin-2-yl]-1,5,5-trimethyl-pyrazolidin-3-one], for which, at human mGlu5a receptor [1], the Emax was 55% and the EC50 amounted to 90 nM. In the case of `CC(C)C1CC(=O)N(c2ccc(C#Cc3ccccc3)cn2)N1` (racemic) [Example 2, (RS)-5-Isopropyl-2-(5-phenylethynyl-pyridin-2-yl)-pyrazolidin-3-one], on human mGlu5a receptor [1], the Emax amounted to 73% and the EC50 was 24 nM. In the case of `CC1(C)CC(=O)N(c2ccc(C#Cc3cccc(F)c3)cn2)N1` [Example 5, 2-[5-(3-Fluoro-phenylethynyl)-pyridin-2-yl]-5,5-dimethyl-pyrazolidin-3-one], on human mGlu5a receptor [1], the Emax is 31% and the EC50 was found to be 13 nM.

Consider `CN1N(c2ncc(C#Cc3cccc(F)c3)cn2)C(=O)CC1(C)C` [Example 15, 2-[5-(3-Fluoro-phenylethynyl)-pyrimidin-2-yl]-1,5,5-trimethyl-pyrazolidin-3-one], for which, on human mGlu5a receptor [1], the Emax turned out to be 61% and the EC50 came to 34 nM.

On to `O=C1CC2CCCN2N1c1ncc(C#Cc2ccccc2)cn1` (racemic) [Example 11, (RS)-1-(5-Phenylethynyl-pyrimidin-2-yl)-tetrahydro-pyrrolo[1,2-b]pyrazol-2-one], for which, at human mGlu5a receptor [1], the Emax stood at 55% and the half-maximal effective concentration (EC50) came out at 60 nM.

`CN1N(c2ccc(C#Cc3ccccc3)cn2)C(=O)CC1(C)C` [Example 3, 1,5,5-Trimethyl-2-(5-phenylethynyl-pyridin-2-yl)-pyrazolidin-3-one]: at human mGlu5a receptor [1], the Emax turned out to be 96% and the EC50 was determined as 30 nM. `CN1N(c2ccc(C#Cc3ccnc(Cl)c3)cn2)C(=O)CC1(C)C` [Example 18, 2-[5-(2-Chloro-pyridin-4-ylethynyl)-pyridin-2-yl]-1,5,5-trimethyl-pyrazolidin-3-one]: at human mGlu5a receptor [2], the Ki is 103 nM. Regarding `CN1N(c2ncc(C#Cc3ccccc3)cn2)C(=O)CC1(C)C` [Example 14, 1,5,5-Trimethyl-2-(5-phenylethynyl-pyrimidin-2-yl)-pyrazolidin-3-one], at human mGlu5a receptor [1], the Emax was 66% and the EC50 turned out to be 33 nM. The matching figures for `CC1(C(F)(F)F)CC(=O)N(c2ccc(C#Cc3ccccc3)cn2)N1` (racemic) [Example 24, (RS)-5-Methyl-2-(5-phenylethynyl-pyridin-2-yl)-5-trifluoromethyl-pyrazolidin-3-one]: 92% and 71 nM. Take `CC1(C)CC(=O)N(c2ccc(C#Cc3ccc(F)cc3)cn2)N1` [Example 8, 2-[5-(4-Fluoro-phenylethynyl)-pyridin-2-yl]-5,5-dimethyl-pyrazolidin-3-one]: at human mGlu5a receptor [1], the Emax is 38% and the EC50 came out at 13 nM. With `CCN1N(c2ccc(C#Cc3ccccc3)cn2)C(=O)CC1(C)C` [Example 21, 1-Ethyl-5,5-dimethyl-2-(5-phenylethynyl-pyridin-2-yl)-pyrazolidin-3-one], at human mGlu5a receptor [2], the Ki came out at 53.5 nM.

Regarding `Cc1cccc(C#Cc2ccc(N3C(=O)CC(C)(C)N3C)nc2)c1` [Example 4, 1,5,5-Trimethyl-2-(5-m-tolylethynyl-pyridin-2-yl)-pyrazolidin-3-one], on human mGlu5a receptor [1], the Emax was determined as 72% and the EC50 was 72 nM.
